# From patent publication US20230233567A1, “BELVARAFENIB FOR USE IN CANCER TREATMENT” (Hanmi Pharm. Co., Ltd., priority 2020, published 2023)
# Experiments:
# Format in all cases: cell-based
# [1] = tested on: 8505C (BRAF^V600E); test: In vitro cell growth inhibition, thyroid cancer; settings: Homo sapiens
# [2] = tested on: A375 (BRAF^V600E); test: In vitro cell growth inhibition, melanoma; settings: Homo sapiens, A-375, mean ± SD, n = 3
# [3] = tested on: CAL-62 (KRAS^G12R); test: In vitro cell growth inhibition, thyroid cancer; settings: Homo sapiens
# [4] = tested on: SK-MEL-28 (BRAF^V600E); test: In vitro cell growth inhibition, melanoma; settings: Homo sapiens, mean ± SD, n = 3
smiles,measurement,setting,value
Cc1ccc2c(Nc3cccc(Cl)c3F)nccc2c1NC(=O)c1csc2c(N)ncnc12 [Belvarafenib],GI50,[1],345 nM
same,GI50,[2],57 nM
same,GI50,[3],479 nM
same,GI50,[4],69 nM
